Test results reported in patent US20230270718A1, “METHODS OF TREATING DIABETIC KIDNEY DISEASE” (Chinook Therapeutics, Inc., priority 2020, published 2023).
Read-outs that look alike come from different tables or passages of the source.

Columns and labels:
DKD patients [1] = assay: SONAR study, six week enrichment period, analyses by concomitant SGLT-2 inhibitor use; type: in vivo, human; design: key to UACR Final, Median / UACR Change, Median: UACR values in mg/g; details: for B-type Natriuretic Peptide, change: geometric mean; for UACR Change, Mean (SD) / UACR Change, Median / UACR Final, Mean (SD) / UACR Final, Median: enrichment atrasentan
Description: A double-blind, randomized, placebo-controlled trial of DKD patients was conducted at 689 sites in 41 countries. The trial was conducted in two phases, an enrichment period and a double-blind treatment period. For the enrichment period, eligible patients were 18-85 years old with type 2 diabetes, an estimated glomerular filtration rate (eGFR) of 25-75 mL/min per 1.73 m^2 of body surface area, a urine albumin-to-creatinine ratio (UACR) of 300-5000 mg/g, a serum albumin of at least 25 g/L, a brain natriuretic peptide (BNP) concentration (level) of no more than 200 pg/mL, a serum potassium of at least 3 to 5 mmol/L, and systolic blood pressure of 110-180 mm Hg. The patients were required to receive a stable, recommended or maximally tolerated dose of an ACE inhibitor or ARB for at least four weeks prior to beginning the enrichment period. Patients also received a diuretic prior to beginning the enrichment period. Exclusion criteria included: a diagnosis of or previous hospital admission for heart failure, a history of severe peripheral or facial edema, diagnosis of type 1 diabetes, history of pulmonary hypertension, pulmonary fibrosis, or any lung diseases requiring oxygen therapy, and known non-diabetic kidney disease. See Heerspink et al., Lancet 393:1937-1947 (2019).
See Heerspink et al., Diabetes Obes Metab., 20:1829-1835 (2018). 42 responder patients and 9 patients in the non-responder group had used a SGLT-2 inhibitor at the start of enrichment. […] It was concluded that the UACR reduction was consistent in both groups.
Referring to the following Table 1, case-control matched cohort data from the study is shown.
SGLT-2 inhibitors included canagliflozin (N=6), empagliflozin (N=4), dapagliflozin (N=3), and luseogliflozin (N=1).
Change in body weight was used as a surrogate for fluid retention. See, e.g., Hoekman, et al., Clin. J. Am. Soc. Nephrol. 2013; 9(3):490-498. The change in BNP was monitored as an additional surrogate for fluid retention (each 1 kg increase in body weight during the enrichment period was associated with a 7.3% increase in BNP (p-value<0.001)).

DKD patients [2] = details: enrichment period, cited from earlier work
DKD patients [3] = details: cited from earlier work
[4] = Table 2, case-control matched cohort (N = 14 vs N = 42), enrichment period
[5] = Table 5, combination matched cohort (N = 14 vs N = 42), enrichment period
[6] = Table 6, combination (N = 14) vs all atrasentan alone subjects (N = 5093), enrichment period
[7] = No prior or concomitant SGLT2, N 4768
[8] = Prior and concomitant sGLT2, N 5
[9] = atrasentan group, treatment period
[10] = of 1,325 patients, atrasentan 0.75 mg orally daily
[11] = of 1,325 responders, atrasentan 0.75 mg orally daily, median follow-up 2.2 years

Structure (SMILES): CCCCN(CCCC)C(=O)CN1C[C@H](c2ccc3c(c2)OCO3)[C@@H](C(=O)O)[C@@H]1c1ccc(OC)cc1 [Atrasentan, (2R,3R,4S)-4-(1,3-benzodioxol-5-yl)-1-[2-(dibutylamino)-2-oxoethyl]-2-(4-methoxyphenyl)pyrrolidine-3-carboxylic acid]
- Change in B-type Natriuretic Peptide (fluid retention) (DKD patients [1]; [4]): 6.9%
- Change in Systolic Blood Pressure (renal efficacy) (DKD patients [1]; [4]): −9.2 mmHg
- Change in body weight (fluid retention) (DKD patients [1]; [4]): 1.1 kg
- Change in eGFR (renal efficacy) (DKD patients [1]; [4]): −0.6 ml/min/1.73 m^2
- Change in hematocrit (fluid retention) (DKD patients [1]; [4]): −2.5%
- Change in hemoglobin (fluid retention) (DKD patients [1]; [4]): -0.9 g/dL
- Body weight, change (DKD patients [1]; [5]): 0.6 kg
- Systolic Blood Pressure, change (DKD patients [1]; [5]): −6.7 mmHg
- eGFR, change (DKD patients [1]; [5]): −2.1 ml/min/1.73 m^2
- B-type Natriuretic Peptide, change (DKD patients [1]; [5]): 5.1%
- Body weight, change (DKD patients [1]; [6]): 0.6 kg
- Systolic Blood Pressure, change (DKD patients [1]; [6]): −4.7 mmHg
- eGFR, change (DKD patients [1]; [6]): −1.0 ml/min/1.73 m^2
- B-type Natriuretic Peptide, change (DKD patients [1]; [6]): 8.3%
- body weight increased by (DKD patients [1]; after six weeks, matched cohort, atrasentan alone): 0.6 kg
- UACR Change, Mean (SD) (DKD patients [1]; Concomitant sGLT2 only, N 64): −469.92 (680.739)
- UACR Change, Median (DKD patients [1]; Concomitant sGLT2 only, N 64): −311.00
- UACR Final, Mean (SD) (DKD patients [1]; Concomitant sGLT2 only, N 64): 809.47 (956.422)
- UACR Final, Median (DKD patients [1]; Concomitant sGLT2 only, N 64): 437.50
- UACR Change, Mean (SD) (DKD patients [1]; [7]): −365.00 (1213.365)
- UACR Change, Median (DKD patients [1]; [7]): −257.00
- UACR Final, Mean (SD) (DKD patients [1]; [7]): 891.95 (1352.518)
- UACR Final, Median (DKD patients [1]; [7]): 540.16
- UACR Change, Mean (SD) (DKD patients [1]; Prior SGLT2 only, N 6): −97.80 (194.266)
- UACR Change, Median (DKD patients [1]; Prior SGLT2 only, N 6): −101.00
- UACR Final, Mean (SD) (DKD patients [1]; Prior SGLT2 only, N 6): 1457.19 (1448.751)
- UACR Final, Median (DKD patients [1]; Prior SGLT2 only, N 6): 939.56
- UACR Change, Mean (SD) (DKD patients [1]; [8]): −109.71 (366.699)
- UACR Change, Median (DKD patients [1]; [8]): −261.00
- UACR Final, Mean (SD) (DKD patients [1]; [8]): 379.37 (556.751)
- UACR Final, Median (DKD patients [1]; [8]): 136.00
- change in UACR from baseline (DKD patients [2]; non-responders, with concomitant SGLT-2 inhibitor use): +10.4%
- change in UACR from baseline (DKD patients [2]; non-responders, without concomitant SGLT-2 inhibitor use): −1.3%
- change in UACR from baseline (DKD patients [2]; responders, with concomitant SGLT-2 inhibitor use): −53.2%
- change in UACR from baseline (DKD patients [2]; responders, without concomitant SGLT-2 inhibitor use): −48.8%
- fluid retention and anemia adverse events (DKD patients [3]; atrasentan group compared with placebo group): more frequent
- patients who died, number (DKD patients [3]; [9]): 58 patients
- patients who died, percent (DKD patients [3]; [9]): 4.4%
- hospital admission for heart failure, number of patients (DKD patients [3]; [10]): 47 patients
- hospital admission for heart failure, percent of patients (DKD patients [3]; [10]): 3.5%
- patients with a primary composite renal endpoint event (doubling of serum creatinine or ESRD), number (DKD patients [3]; [11]): 79 patients
- patients with a primary composite renal endpoint event (doubling of serum creatinine or ESRD), percent (DKD patients [3]; [11]): 6.0%
